Where “and” joins values, the source holds several entries; their conditions need not be identical. Equal entries are not always repeated. Entries after “also recorded” stand apart in the source; their conditions may differ. Where two headings read alike, the source gives them in different places.
Tests used:
[1] = target: T1, PL (pancreatic lipase) from porcine pancreas (Sus scrofa, UniProt P00591); assay: Pancreatic lipase inhibition, spectrophotometric p-nitrophenyl butyrate assay; conditions: IC50 (µM) ± SD, p-nitrophenyl butyrate substrate, 37°C
T1 sequence (P00591 1-450): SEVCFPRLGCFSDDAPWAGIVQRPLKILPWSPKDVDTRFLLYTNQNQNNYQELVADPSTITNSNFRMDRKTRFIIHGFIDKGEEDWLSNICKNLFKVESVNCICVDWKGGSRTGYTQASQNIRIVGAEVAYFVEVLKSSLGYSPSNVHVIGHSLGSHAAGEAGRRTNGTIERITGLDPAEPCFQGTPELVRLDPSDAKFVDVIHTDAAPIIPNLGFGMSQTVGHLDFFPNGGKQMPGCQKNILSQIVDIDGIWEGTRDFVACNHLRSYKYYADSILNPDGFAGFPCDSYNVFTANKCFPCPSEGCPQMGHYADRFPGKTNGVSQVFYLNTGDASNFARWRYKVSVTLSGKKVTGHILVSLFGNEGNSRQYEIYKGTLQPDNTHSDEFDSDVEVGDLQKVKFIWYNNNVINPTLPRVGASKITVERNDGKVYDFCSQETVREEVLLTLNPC
Procedure: The inhibition of PL (from porcine pancreas; see Supporting Information) was assessed using previously described spectrophotometric methods [15, 16, 30]. […] Thus, a lower value indicates higher inhibitory activity.
The reactions were incubated at 37°C for 10 min. Then, the substrate p‐nitrophenyl butyrate (3.2 mM in H2O/DMF 70:30, 10 μL) was pipetted, and the microplate was incubated at 37°C for 30 min under moderate shaking.

hCA VB = assay: Stopped-flow CO2 hydrase assay; format: biochemical, human; conditions: K i VA / K i VB
Procedure: (§1) An Applied Photophysics stopped‐flow instrument was used to assay the CA‐catalyzed CO2 hydration activity. […] The uncatalyzed rates were determined in the same manner and subtracted from the total observed rates. Stock solutions of the inhibitor (0.1 mM) were prepared in distilled−deionized water, and dilutions up to 0.01 nM were done thereafter with the assay buffer. Inhibitor and enzyme solutions were preincubated together for 15 min at room temperature before the assay, to allow for the formation of the E − I complex. The inhibition constants were obtained by nonlinear least‐squares methods using PRISM 3 and the Cheng–Prusoff equation as reported earlier and represent the mean from at least three different determinations. All CA isoforms were recombinant proteins obtained in house, as reported earlier.

hCA IX = target: T2, hCA IX (Homo sapiens, UniProt Q16790); format: biochemical; conditions: read-out: K i hCA IX
T2 construct: made in house
Procedure: as §1

[2] = target: T1, PL (pancreatic lipase) from porcine pancreas; assay: Kinetics of PL inhibition (Lineweaver-Burk plots); format: biochemical
Procedure: The inhibition of PL by LTS0059529 on PL was also determined using Lineweaver–Burk graphs, which plot the reciprocal of initial velocity (v 0 ) against the reciprocal of substrate concentration.
The mode of inhibition of PL in the presence of LTS0059529 was determined by elaboration of UV‐vis spectroscopic data with Lineweaver–Burk plots. […] The competitive inhibition constants K i was calculated from the following equation. (2) v0=vmaxS/Km1+I/Ki+S, where ν 0 is the initial velocity in the absence and presence of the inhibitor, S and I are the concentrations of substrate and inhibitor, respectively; ν max is the maximum velocity, K m is the Michaelis–Menten constant. The replot of slopes (K m/ν max) from Lineweaver–Burk plot versus the inhibitor concentration afforded K i value as well.

hCA XII = target: T3, hCA XII (Homo sapiens, UniProt O43570); assay: Stopped-flow CO2 hydrase assay; format: biochemical; conditions: mean from 3 assays, read-out: K i hCA XII
T3 construct: made in house
Procedure: as §1

hCA II = target: T4, hCA II (Homo sapiens, UniProt P00918); assay: Stopped-flow CO2 hydrase assay; format: biochemical; conditions: mean from 3 assays, read-out: K i hCA II
T4 construct: made in house
Procedure: as §1

hCA I = target: T5, hCA I (Homo sapiens, UniProt P00915); assay: Stopped-flow CO2 hydrase assay; format: biochemical; conditions: mean from 3 assays, read-out: K i hCA I
T5 construct: made in house
Procedure: as §1

hCA VA = target: T6, hCA VA (Homo sapiens, UniProt P35218); assay: Stopped-flow CO2 hydrase assay; format: biochemical; conditions: mean from 3 assays, read-out: K i hCA VA
T6 construct: made in house
Procedure: as §1

hCA VII = target: T7, hCA VII (Homo sapiens, UniProt Q9Y2D0); assay: Stopped-flow CO2 hydrase assay (supplement table column); format: biochemical
T7 construct: made in house
Procedure: An Applied Photophysics stopped‐flow instrument was used to assay the CA‐catalyzed CO2 hydration activity. Phenol red (at a concentration of 0.2 mM) was used as an indicator, working at the absorbance maximum of 557 nm, with 20 mM Hepes (pH 7.4) as a buffer, and 20 mM Na2SO4 (to maintain constant ionic strength), following the initial rates of the CA‐catalyzed CO2 hydration reaction for a period of 10 − 100 s. The CO2 concentrations ranged from 1.7 to 17 mM for the determination of the kinetic parameters and inhibition constants. Enzyme concentrations ranged between 5 and 12 nM. For each inhibitor, at least six traces of the initial 5%−10% of the reaction were used to determine the initial velocity. The uncatalyzed rates were determined in the same manner and subtracted from the total observed rates. Stock solutions of the inhibitor (0.1 mM) were prepared in distilled−deionized water, and dilutions up to 0.01 nM were done thereafter with the assay buffer. Inhibitor and enzyme solutions were preincubated together for 15 min at room temperature before the assay, to allow for the formation of the E − I complex. The inhibition constants were obtained by nonlinear least‐squares methods using PRISM 3 and the Cheng–Prusoff equation as reported earlier and represent the mean from at least three different determinations. […]

[3] = target: T1, PL (pancreatic lipase) from porcine pancreas; conditions: cited from earlier work

T3 sequence (O43570 25-354): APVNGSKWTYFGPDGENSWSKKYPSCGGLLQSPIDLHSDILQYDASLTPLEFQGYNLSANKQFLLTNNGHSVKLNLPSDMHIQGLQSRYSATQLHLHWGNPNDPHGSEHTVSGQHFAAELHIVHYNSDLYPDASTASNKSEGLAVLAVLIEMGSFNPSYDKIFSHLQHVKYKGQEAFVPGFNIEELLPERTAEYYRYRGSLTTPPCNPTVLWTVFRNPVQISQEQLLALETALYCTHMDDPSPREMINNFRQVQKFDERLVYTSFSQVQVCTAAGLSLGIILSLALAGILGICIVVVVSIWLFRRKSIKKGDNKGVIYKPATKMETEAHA
T5 sequence (P00915 whole entry): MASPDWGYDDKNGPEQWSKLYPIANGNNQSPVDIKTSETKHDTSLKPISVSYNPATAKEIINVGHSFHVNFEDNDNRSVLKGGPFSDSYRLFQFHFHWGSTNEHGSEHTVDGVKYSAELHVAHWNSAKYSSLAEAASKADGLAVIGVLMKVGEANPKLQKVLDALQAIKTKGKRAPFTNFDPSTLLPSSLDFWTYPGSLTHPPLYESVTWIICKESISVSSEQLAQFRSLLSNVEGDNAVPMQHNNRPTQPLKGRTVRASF
T6 sequence (P35218 39-305): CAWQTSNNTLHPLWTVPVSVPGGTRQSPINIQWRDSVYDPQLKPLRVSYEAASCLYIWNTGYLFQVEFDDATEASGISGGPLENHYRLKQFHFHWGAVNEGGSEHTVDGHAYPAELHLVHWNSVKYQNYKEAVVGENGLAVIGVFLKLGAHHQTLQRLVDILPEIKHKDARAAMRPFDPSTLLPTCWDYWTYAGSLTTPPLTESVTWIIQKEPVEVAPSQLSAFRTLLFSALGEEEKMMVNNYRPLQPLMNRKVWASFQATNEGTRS
T7 sequence (Q9Y2D0 34-317): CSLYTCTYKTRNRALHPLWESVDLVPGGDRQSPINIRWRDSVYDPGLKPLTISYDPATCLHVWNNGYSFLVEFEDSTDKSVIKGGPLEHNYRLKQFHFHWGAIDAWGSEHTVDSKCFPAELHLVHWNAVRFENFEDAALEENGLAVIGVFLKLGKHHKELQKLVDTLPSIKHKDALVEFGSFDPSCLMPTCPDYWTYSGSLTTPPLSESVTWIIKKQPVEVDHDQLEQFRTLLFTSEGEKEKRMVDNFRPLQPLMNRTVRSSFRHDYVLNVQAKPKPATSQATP

Row | Structure (SMILES) | IC50 [1] | Inhibition ratio hCA VA versus hCA VB (VB more potently inhibited) (hCA VB) [fold] | Ki (hCA IX) [µM] | Inhibition mode ([2]; Lineweaver-Burk plot) | Ki ([2]; from slope of L-B plot lines versus inhibitor concentration) [µM] | v max of the reaction ([2]; not affected by the competitive inhibitor) [mM/min] | Ki (hCA XII) [µM] | Ki (hCA II) [µM] | Ki (hCA I) [µM] | Ki (hCA VA) [µM] | Ki (hCA VII) [µM] | Inhibition mode [3]
1 | O=C(/C=C/c1ccc(O)c2c1[C@H](C(=O)O)[C@@H](c1ccc(O)c(O)c1)O2)O[C@H](Cc1ccc(O)c(O)c1)C(=O)O [LTS0059529, Lithospermic acid] | 5.4 µM and 5.45 µM | 1.15 | 0.31 ± 0.01 | competitively; also recorded: Competitive | 33.1 ± 1.6 | 0.091 ± 0.002 | 0.0048 ± 0.003 | > 100 | > 100 | 0.69 ± 0.01 | 0.6 ± 0.02 | –
2 | CCCCCCCCCCC[C@@H](C[C@@H]1OC(=O)[C@H]1CCCCCC)OC(=O)[C@H](CC(C)C)NC=O [ORL, Orlistat] | – | – | – | – | – | – | – | – | – | – | – | Competitive
